These results are taken from article PMC11036396 (2024).

Experiment [1] concerns Trp aptamer (Cy5-labelled, Trp aptamer sensor) (DNA, aptamer) AGCACGTTGGTTAGGTCAGGTTTGGGTTTCGTGC
Nature of the experiment: strand-displacement fluorescence. Particulars: 2.7 mM KCl, 5 mM MgCl2, 500 mM NaCl.

The test system is the same in experiment [2]. Nature of the experiment: strand-displacement fluorescence titration (Langmuir fit). As to conditions: 2.7 mM KCl, 5 mM MgCl2, 500 mM NaCl; TAB pH 7.4, 25 °C; displaces CS-10-BHQ2 quencher strand; 0.5 μM aptamer, 1.25 μM CS-10; apparent.
Setting [3] is: TAB pH 7.4, displaces CS-10-BHQ2 quencher strand, distinguished from its precursor.

In the case of `COc1ccc2[nH]cc(C[C@H](N)C(=O)O)c2c1`, in experiment [1] (setting [3]), the binding result is on record as “yes”.

As to `N[C@@H](Cc1c[nH]c2ccc(F)cc12)C(=O)O`, the binding result in experiment [1] (setting [3]) is “yes”.

In the case of `N[C@@H](Cc1c[nH]c2ccccc12)C(=O)O`, in experiment [2], the Ksens was 3.3 [2.8–4.6, 95% credible region] mM.

`N[C@@H](Cc1ccccc1)C(=O)O`: in experiment [1] (TAB pH 7.4, 25 °C, CS-10-BHQ2 quencher strand, highest concentration 5 mM), the binding entry is given as “no”.

For `N[C@H](Cc1c[nH]c2ccccc12)C(=O)O`, the binding result in experiment [1] (TAB pH 7.4, 25 °C, displaces CS-10-BHQ2 quencher strand, 5 mM compound) is “yes”.
